According to article PMC7529893, “Structural basis for substrate recognition and chemical inhibition of oncogenic MAGE ubiquitin ligases” (Nature Communications, 2020):
≈ marks a conversion by molar mass, not a printed value. Peptide text beside a SMILES is read from it.

Legend:
GST-MAGE-A11 MHD = target: T1, GST-MAGE-A11 MHD (Homo sapiens, UniProt P43364); assay: TR-FRET competition assay of PCF11 peptides against GST-MAGE-A11 MHD / FAM-PCF11_4; settings: Fig. 1c, panel of eight PCF11 peptides; read-out: IC50, binding of PCF11 peptide to GST-MAGE-A11 by TR-FRET
T1 construct: GST-MAGE-A11 MHD (human MAGE-A11 MHD amino acid 218-429); made in house; host or cells: E. coli BL21(DE3)
T1 sequence (P43364 218-429): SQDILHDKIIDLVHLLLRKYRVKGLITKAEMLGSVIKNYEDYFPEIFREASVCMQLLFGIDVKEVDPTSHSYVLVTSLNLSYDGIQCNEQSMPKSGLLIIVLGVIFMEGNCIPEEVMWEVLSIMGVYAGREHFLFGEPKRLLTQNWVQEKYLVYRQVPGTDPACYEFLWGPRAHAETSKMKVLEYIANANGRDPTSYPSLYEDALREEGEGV
Protocol: The TR-FRET assay buffer with a formula of 50 mM Tris pH 7.5, 20 mM MgCl2, 0.1 mg/ml BSA and 1 mM DTT was freshly prepared before each experiment. All TR-FRET assays were performed in black 384-well plates with 20 µl/well assay volume in the TR-FRET assay buffer at room temperature (~25 °C). All peptides or compounds were solubilized in DMSO. To test the competitive activity of peptides or compounds against the interaction between GST-MAGE-A11 MHD and FAM-PCF11_4 peptide, 10 µl/well peptide or compound at specified concentration was dispensed into a black 384-well low volume plate, followed by 5 µl/well FAM-PCF11_4 (800 nM), 5 µl/well Tb-anti-GST (20 nM), and GST-MAGE-A11 MHD (20 nM). The assay components in each well was then mixed by shaking the plate on an IKA MTS 2/4 digital microtiter plate shaker (IKA Works; Wilmington, NC, USA) for 1 min. The plate was further centrifuged in an Eppendorf 5810 centrifuge with an A-4-62 swing-bucket rotor (Eppendorf AG, Hamburg, Germany) at 201 g for 30 s. The plate was then incubated for 90 min with a lid to avoid light exposure to the assay components. After incubation, the fluorescent emission signals at 520 nm and 490 nm channels of individual wells were measured with a PHERAstar FS plate reader (BMG Labtech; Durham, NC, USA) by using a 340 nm excitation filter, 100 µs delay time, and 200 µs integration time. The TR-FRET fluorescence emission ratio (TR-FRET signal) for each well was presented as 10,000 × 520 nm/490 nm, which was used directly for curve fitting, or further converted to %Inhibition based on the respective positive and negative controls. The graphic software GraphPad Prism 4.81 (GraphPad Software; La Jolla, CA, USA) was used to generate curves and derive IC50 values of tested peptides or compounds, if applicable.
TR-FRET inhibitory activity characterization of a panel of PCF11 peptides against the interaction between GST-MAGE-A11 MHD and FAM-PCF11_4 was performed as follows. In a 20-µl/well assay volume, dilutions of PCF11_1 to PCF11_8 peptides (concentrations ranged from 3.1 nM to 100 µM for peptides PCF11_4, PCF11_5, PCF11_6 and PCF11_8 in a 1-to-2 dilution pattern for 16 concentration levels, and ranged from 48.9 nM to 100 µM for peptides of PCF11_1, PCF11_2, PCF11_3, and PCF11_7 in a 1-to-2 dilution pattern for 12 concentration levels), 200 nM FAM-PCF11_4, 5 nM Tb-anti-GST and 5 nM GST-MAGE-A11 were mixed together and incubated for 90 min before the TR-FRET signal for each well was measured. The final DMSO concentration was 1.1% (v/v). […] The signal of each peptide-treated well (Signalpeptide) was normalized to the positive and negative controls to derive %inhibition of the peptide at a specific concentration with Eq. (1). Where applicable, the %Inhibition data were fit into a Sigmoidal dose response equation to derive IC50 values.1 %Inhibition=100%−100%×(Signalpeptide−SignalDMSOwithoutGST-MAGEA11)/SignalDMSO−SignalDMSOwithoutGST-MAGEA11.

[1] = Solubility assay (μSOL Evolution); assay type: physicochemical; settings: 18 h at RT; for solubility at 18 h: citrate phosphate-buffered saline (isotonic) with 1% DMSO
Protocol: Solubility assays were carried out on a Biomek FX lab automation workstation (Beckman Coulter, Inc., Fullerton, CA) using μSOL Evolution software (pION Inc., Woburn, MA). The detailed method is described as follows. 10 µl of 10 mM compound stock (in DMSO) was added to 190 μl 1-propanol to make a reference stock plate. In total, 5 µl from this reference stock plate were mixed with 70 µl 1-propanol and 75 µl citrate phosphate-buffered saline (PBS; isotonic) to make the reference plate, and the UV spectrum (250–500 nm) of the reference plate was read. In total, 6 µl of 10 mM test compound stock was added to 594 µl buffer in a 96-well storage plate and mixed. The storage plate was sealed and incubated at RT for 18 h. The suspension was then filtered through a 96-well filter plate (pION Inc., Woburn, MA). In all, 75 µl of filtrate was mixed with 75 µl 1-propanol to make the sample plate, and the UV spectrum of the sample plate was read. Calculations were carried out with μSOL Evolution software based on the area under the curve (AUC) of the UV spectrum of the sample and reference plates. All compounds were tested in triplicate.

Caco-2 cells = assay: High throughput Caco-2 permeability; assay type: in vitro ADME; settings: 10 µmol/l, 2 h; for Papp A→B: apical to basolateral; for Papp B→A: basolateral to apical
Protocol: (§1) High throughput Caco-2 permeability was performed in the TranswellR 0.4 µm polycarbonate membrane 96-well system with modified methods. Caco-2 cells were maintained at 37 °C in a humidified incubator with an atmosphere of 5% CO2. The cells were cultured in 75 cm^2 flasks with Dulbecco’s Modified Eagle’s Medium (DMEM) containing 10% (v/v) FBS, 1% (v/v) non-essential amino acids (NEAA), 100 units/ml of penicillin, and 100 µg/ml of streptomycin. The Caco-2 cells were seeded onto inserts at a density of 2 × 10^4 cells/insert separately. The medium in the wells was exchanged each other day, and the trans epithelial electrical resistance (TEER) value was measured using an epithelial voltohm meter (Millipore, Billerica, Massachusetts). […] For transport experiments, each cultured monolayer on the 96-well plate was washed twice with a transport buffer (HBSS containing 25 mM HEPES, pH 7.4). The permeability assay was initiated by the addition of each compound solution (10 µmol/l) into inserts (apical side, A) or receivers (basolateral side, B). The Caco-2 cell monolayers were incubated for 2 h at 37 °C. Fractions were collected from receivers (if apical to basal permeability) or inserts (if basal to apical permeability), and concentrations were assessed by UPLC/MS (Waters; Milford, MA). All compounds were tested in triplicates. The A → B (or B → A) apparent permeability coefficients (Papp) of each compound were calculated using the equation, Papp = dQ/dt × 1/AC0, where dQ/dt equals the flux of a drug across the monolayer, A equals the total insert well surface area, and C0 is the initial concentration of substrate in the donor compartment. The efflux ratio was determined by dividing the Papp in the B-A direction by the Papp in the A-B direction.

[2] = target: T2, MAGE-A11:PCF11 interaction (GST-MAGE-A11 MHD and FAM-PCF11_4) (Homo sapiens, UniProt P43364); assay: TR-FRET dose response test of compounds for disruption of MAGE-A11:PCF11 binding; settings: Supplementary Data 4; read-out: TR-FRET, IC50
T2 construct: GST-MAGE-A11 MHD (human MAGE-A11 MHD amino acid 218-429); made in house; host or cells: E. coli BL21(DE3)
T2 sequence (P43364 218-429): T1 sequence (P43364 218-429)
How it was run: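 Competition of compounds against binding of FAM-PCF11_4 peptide to GST-MAGE-A11 MHD, detected with Tb-anti-GST, in 50 mM Tris pH 7.5, 20 mM MgCl2, 0.1 mg/ml BSA, 1 mM DTT. 90 min at ~25 °C; 520/490 nm emission ratio (340 nm excitation) fitted for IC50.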

[3] = High throughput Caco-2 permeability; assay type: in vitro ADME; settings: human, Caco-2, pH 7.4, 10 µmol/l, 2 h; for Papp A→B at 2 h, 10 µmol/l: apical to basolateral; for Papp B→A at 2 h, 10 µmol/l: basolateral to apical
Protocol: as §1

SMILES | IC50 (GST-MAGE-A11 MHD) [nM] | Solubility [1] [µM] | Papp A→B (Caco-2 cells) [×10⁻⁶ cm/s] | Papp B→A (Caco-2 cells) [×10⁻⁶ cm/s] | IC50 [2] [nM] | solubility at 18 h [1] [µM] | Papp A→B at 2 h, 10 µmol/l [3] [×10⁻⁶ cm/s] | Papp B→A at 2 h, 10 µmol/l [3] [×10⁻⁶ cm/s]
CC[C@H](C)[C@H](NC(=O)[C@H](CCC(N)=O)NC(=O)[C@H](Cc1c[nH]cn1)NC(=O)[C@@H](NC(=O)[C@@H](NC(=O)[C@@H](NC(=O)[C@H](CC(C)C)NC(=O)[C@H](Cc1ccccc1)NC(=O)[C@H](CC(=O)O)NC(=O)[C@H](CC(=O)O)NC(=O)[C@H](CCC(N)=O)NC(=O)[C@@H](NC(=O)[C@@H](NC(=O)[C@H](CCC(=O)O)NC(=O)CN)[C@@H](C)CC)[C@@H](C)O)C(C)C)C(C)C)C(C)C)C(=O)O [PCF11_3] (H-GEITQDDFLVVVHQI-OH; N-terminus assumed) | > 50000 |  |  |  |  |  |  | 
FC(F)(F)c1ccc2c(NCCCNCc3ccc4c(c3)OCO4)ccnc2c1 [SJ000361106-02] |  | 128.74 (≈ 51.9 µg/mL) | 47 | 40 |  |  |  | 
FC(F)(F)c1ccc2c(NCCCNCc3ccco3)ccnc2c1 [SJ000361113-02] |  | 119.10 (≈ 41.6 µg/mL) | 50.2 | 40.1 | > 70000 |  |  | 
FC(F)(F)c1cc(-c2ccc3c(NCCCNCc4ccco4)ccnc3c2)cc(C(F)(F)F)c1 [SJ000311270-01, FC(F)(F)c1cc(cc(c1)C(F)(F)F)c2ccc3c(NCCCNCc4occc4)ccnc3c2] |  |  |  |  | 580 | 61.1 (≈ 30.1 µg/mL) | 0.326 | 0.079
CC[C@H](C)[C@H](NC(=O)[C@H](CCC(N)=O)NC(=O)[C@H](Cc1c[nH]cn1)NC(=O)[C@@H](N)C(C)C)C(=O)N[C@@H](CCCNC(=N)N)C(=O)N[C@@H](CCC(N)=O)C(=O)N[C@@H](CC(C)C)C(=O)N[C@@H](Cc1ccccc1)C(=O)N[C@@H](CCC(N)=O)C(=O)N[C@@H](Cc1ccc(O)cc1)C(=O)N[C@@H](CCC(N)=O)C(=O)N[C@@H](CCC(=O)O)C(=O)NCC(=O)N[C@H](C(=O)N[C@@H](CCCNC(=N)N)C(=O)N[C@@H](CCC(=O)O)C(=O)N[C@@H](CCC(=O)O)C(=O)N[C@@H](CCC(N)=O)C(=O)N[C@@H](CCCNC(=N)N)C(=O)N[C@@H](CO)C(=O)O)C(C)C [PCF11_8] (H-VHQIRQLFQYQEGVREEQRS-OH; N-terminus assumed) | > 50000 |  |  |  |  |  |  | 
C=CC(=O)N(CCCNc1ccnc2ccccc12)Cc1ccc2[nH]ccc2c1 [SJ001009807-01] |  | 34.77 (≈ 13.4 µg/mL) | 2.73 | 18.9 | 3500 |  |  | 
CC(C)(C)c1ccc(-c2ccc3c(NCCCNCc4ccco4)ccnc3c2)cc1 [SJ000311286-01, CC(C)(C)c1ccc(cc1)c2ccc3c(NCCCNCc4occc4)ccnc3c2] |  |  |  |  | 1160 | 56.2 (≈ 23.2 µg/mL) | 0.578 | 0.12
CC(C)(C)c1ccc(-c2ccc3c(NCCCNCc4ccc5[nH]ccc5c4)ccnc3c2)cc1 [SJ001008068-01] |  | 0.67 (≈ 0.31 µg/mL) | 0.368 | 1.54 | 130 |  |  | 
Brc1ccc2c(NCCCNCc3ccc4[nH]ccc4c3)ccnc2c1 [SJ001008065-01] |  | 57.14 (≈ 23.4 µg/mL) | 18.3 | 19.3 | 620 |  |  | 
Clc1ccc2c(NCCCNCc3ccc4[nH]ccc4c3)ccnc2c1 [SJ000520909-03] |  | 59.80 (≈ 21.8 µg/mL) | 19.6 | 21.3 | 240 |  |  | 
FC(F)(F)c1cc(-c2ccc3c(NCCCNCc4ccc5[nH]ccc5c4)ccnc3c2)cc(C(F)(F)F)c1 [SJ001008069-01] |  | 0.12 (≈ 0.0651 µg/mL) | 0.498 | 0.229 | 200 |  |  | 
